According to patent US12091426B2, “Bifunctional degraders of hematopoietic progenitor kinase and therapeutic uses thereof” (Nurix Therapeutics, Inc., priority 2021, dated 2024):

Molecular target: T1, HPK1 (Homo sapiens, UniProt Q92918)
T1 construct: A HiBiT tag was introduced by CRISPR on the N terminus of HPK1 in Jurkat cells; host or cells: Jurkat cells (ATCC TIB-152), monoclonal line with CRISPR knock-in of HiBiT at the endogenous HPK1 locus
Assay: HPK1 Cellular HiBit Degradation Assay
Assay type: cell-based
Conditions: HiBiT HPK1 Jurkat cells, 24 hrs; for DC50: concentration at which 50% of HPK1 was remaining, read-out: DC50 Category; for Dmax: Jurkat, read-out: Dmax Category
Outline: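 HiBiT-HPK1 Jurkat (CRISPR, N-term tag), 3×10^4 cells/well, RPMI 1640 + 10% FBS; CTMs 10 uM–0.1 nM, 11 pts; 24 hrs, 37° C/5% CO2; lytic HiBiT luminescence; % remaining vs DMSO, parental background subtracted; 4-parameter fit → DC50, Dmax.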

[1] = maximum degradation vs DMSO vehicle control

T1 sequence (Q92918 whole entry): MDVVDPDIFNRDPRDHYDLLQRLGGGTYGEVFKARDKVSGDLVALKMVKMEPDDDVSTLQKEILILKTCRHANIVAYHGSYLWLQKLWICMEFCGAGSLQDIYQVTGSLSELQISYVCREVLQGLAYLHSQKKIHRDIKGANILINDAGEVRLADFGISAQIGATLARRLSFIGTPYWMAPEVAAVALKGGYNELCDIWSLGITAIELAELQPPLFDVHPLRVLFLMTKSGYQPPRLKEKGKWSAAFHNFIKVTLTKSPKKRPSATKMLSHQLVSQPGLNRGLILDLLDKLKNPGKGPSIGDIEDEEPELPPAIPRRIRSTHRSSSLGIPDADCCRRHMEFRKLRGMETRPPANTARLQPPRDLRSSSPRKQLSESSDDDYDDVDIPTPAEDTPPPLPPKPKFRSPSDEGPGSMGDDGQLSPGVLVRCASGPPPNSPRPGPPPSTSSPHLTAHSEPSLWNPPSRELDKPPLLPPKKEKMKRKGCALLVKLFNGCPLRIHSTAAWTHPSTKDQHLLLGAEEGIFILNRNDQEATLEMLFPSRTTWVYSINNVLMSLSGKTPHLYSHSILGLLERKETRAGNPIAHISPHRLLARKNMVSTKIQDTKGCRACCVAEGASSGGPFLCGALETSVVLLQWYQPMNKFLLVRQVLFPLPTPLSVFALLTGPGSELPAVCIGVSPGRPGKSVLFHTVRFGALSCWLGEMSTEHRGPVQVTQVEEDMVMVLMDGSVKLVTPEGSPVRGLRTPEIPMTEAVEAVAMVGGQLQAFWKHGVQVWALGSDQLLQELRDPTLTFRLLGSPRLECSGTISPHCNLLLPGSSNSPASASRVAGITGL

SMILES	DC50	Dmax [1]	Dmax Category [1]
CC(C(=O)N1CCN(C(=O)C2CCN(c3ccc(C4CCC(=O)NC4=O)cn3)CC2)CC1)N1CCC2(CC1)C(=O)N([C@H]1C[C@@H](N3CCCCC3)C1)c1cc(-c3cc4ncn(C(C)C)c4c(NC4CC4)n3)ccc12 (stereo partly drawn) [Example 172, 3-(6-{4-[4-(2-{6-[4-(cyclopropylamino)-3-(propan-2-yl)-3H-imidazo[4,5-c]pyridin-6-yl]-2-oxo-1-[(1S,3S)-3-(piperidin-1-yl)cyclobutyl]-1,2-dihydrospiro[indole-3,4′-piperidin]-1′-yl}propanoyl)piperazine-1-carbonyl]piperidin-1-yl}pyridin-3-yl)piperidine-2,6-dione]	< 100 nM	> 85%	
CC(C)n1cnc2cc(-c3ccc4c(c3)N([C@H]3C[C@@H](N5CCCCC5)C3)C(=O)C43CCN(C(=O)C4(C)CCN(C(=O)C5CCN(c6ccc([C@H]7CCC(=O)NC7=O)cn6)CC5)CC4)CC3)nc(NC3CC3)c21 (single isomer, unassigned) [Example 212]	< 100 nM		B (B: >70%-<85%)

Continued, in another order:

DC50	Dmax [1]	SMILES	Dmax Category [1]
< 100 nM	70 to 85%	CC(C)n1cnc2cc(-c3ccc4c(c3)N([C@H]3C[C@@H](N5CCCCC5)C3)C(=O)C43CCN(C(=O)[C@H]4CN(C(=O)C5CCN(c6ccc(C7CCC(=O)NC7=O)cc6)CC5)CC4(C)C)CC3)nc(NC3CC3)c21 (mixture of isomers) [Example 252, (3RS)-3-(4-{4-[(4R)-4-({6-[4-(cyclopropylamino)-3-(propan-2-yl)-3H-imidazo[4,5-c]pyridin-6-yl]-2-oxo-1-[(1S,3S)-3-(piperidin-1-yl)cyclobutyl]-1,2-dihydrospiro[indole-3,4′-piperidin]-1′-yl}carbonyl)-3,3-dimethylpyrrolidine-1-carbonyl]piperidin-1-yl}phenyl)piperidine-2,6-dione]	
100 to 500 nM	50 to 70%	CC(C)n1cnc2cc(-c3ccc4c(c3)N([C@H]3C[C@@H](N5CCCCC5)C3)C(=O)C43CCN(C(=O)[C@@H]4CCN(C(=O)[C@H]5CC[C@H](Nc6cccc7c6C(=O)N(C6CCC(=O)NC6=O)C7=O)CC5)C4)CC3)nc(Nc3ccncc3F)c21 (mixture of isomers) [Example 11, 2-[(3RS)-2,6-dioxopiperidin-3-yl]-4-{[(1R,4R)-4-[(3R)-3-[(6-{4-[(3-fluoropyridin-4-yl)amino]-3-(propan-2-yl)-3H-imidazo[4,5-c]pyridin-6-yl}-2-oxo-1-[(1S,3S)-3-(piperidin-1-yl)cyclobutyl]-1,2-dihydrospiro[indole-3,4′-piperidin]-1′-yl)carbonyl]pyrrolidine-1-carbonyl]cyclohexyl]amino}-2,3-dihydro-1H-isoindole-1,3-dione]	
< 100 nM	70 to 85%	CC(C)n1cnc2cc(-c3ccc4c(c3)N([C@H]3C[C@@H](N5CCCCC5)C3)C(=O)C43CCN(C(=O)CC4CCN(C(=O)C5CCN(c6ccc(C7CCC(=O)NC7=O)cn6)CC5)CC4)CC3)nc(NC3CC3)c21 (mixture of isomers) [Example 162, (3RS)-3-(6-{4-[4-(2-{6-[4-(cyclopropylamino)-3-(propan-2-yl)-3H-imidazo[4,5-c]pyridin-6-yl]-2-oxo-1-[(1S,3S)-3-(piperidin-1-yl)cyclobutyl]-1,2-dihydrospiro[indole-3,4′-piperidin]-1′-yl}-2-oxoethyl)piperidine-1-carbonyl]piperidin-1-yl}pyridin-3-yl)piperidine-2,6-dione]	
100 to 500 nM	70 to 85%	CC(C)n1cnc2cc(-c3ccc4c(c3)N([C@H]3C[C@@H](N5CCCCC5)C3)C(=O)C43CCN(C(=O)C4CCN(C(=O)[C@H]5CC[C@H](Nc6cccc7c6C(=O)N(C6CCC(=O)NC6=O)C7=O)CC5)CC4)CC3)nc(Nc3ccccc3F)c21 (mixture of isomers) [Example 57, 2-[(3RS)-2,6-dioxopiperidin-3-yl]-4-{[(1R,4R)-4-{4-[(6-{4-[(2-fluorophenyl)amino]-3-(propan-2-yl)-3H-imidazo[4,5-c]pyridin-6-yl}-2-oxo-1-[(1S,3S)-3-(piperidin-1-yl)cyclobutyl]-1,2-dihydrospiro[indole-3,4′-piperidin]-1′-yl)carbonyl]piperidine-1-carbonyl}cyclohexyl]amino}-2,3-dihydro-1H-isoindole-1,3-dione]	
